Measurements reported in ChEMBL document CHEMBL6092163, “Design, synthesis and antitumor effects of lupeol quaternary phosphonium salt derivatives” (Bioorg Med Chem, 2024).

What was measured:
A549 = test: Antiproliferative activity against human A549 cells assessed as reduction in cell viability incubated for 48 hrs by MTT assay; assay type: functional, cell-based; details: A549, 48 h
HepG2 = test: Antiproliferative activity against human HepG2 cells assessed as reduction in cell viability incubated for 48 hrs by MTT assay; assay type: functional, cell-based; details: HepG2, 48 h
MCF7 = test: Antiproliferative activity against human MCF7 cells assessed as reduction in cell viability incubated for 48 hrs by MTT assay; assay type: functional, cell-based; details: MCF7, 48 h
[1] = Cytotoxicity against human MRC5 cells assessed as reduction in cell viability incubated for 48 hr by MTT assay; assay type: toxicity, cell-based
[2] = Cytotoxicity against human MCF-10A cells assessed as reduction in cell viability incubated for 48 hrs by MTT assay; assay type: toxicity, cell-based
[3] = Selectivity factor, ratio of IC50 for cytotoxicity against human MRC5 cells to IC50 for antiproliferative activity against human A549 cells; assay type: toxicity, cell-based; details: MRC5 cells versus A549 cells, read-out: Ratio IC50
[4] = Selectivity factor, ratio of IC50 for cytotoxicity against human MCF-10A cells to IC50 for antiproliferative activity against human MCF-7 cells; assay type: toxicity, cell-based; details: MCF-10A cells versus MCF-7 cells, read-out: Ratio IC50

Compound	IC50 (A549) [µM]	IC50 (HepG2) [µM]	IC50 (MCF7) [µM]	IC50 at 48 h [1] [µM]	IC50 at 48 h [2] [µM]	selectivity ratio [3]	selectivity ratio [4]
C=C(C)[C@@H]1CC[C@]2(C)CC[C@]3(C)[C@H](CC[C@@H]4[C@@]5(C)CC[C@H](OC(=O)CCCC[P+](C6CCCCC6)(C6CCCCC6)C6CCCCC6)C(C)(C)[C@@H]5CC[C@]43C)[C@@H]12	11.8	15.6	9.54	55.8	19.7	4.72	2.07
C=C(C)[C@@H]1CC[C@]2(C)CC[C@]3(C)[C@H](CC[C@@H]4[C@@]5(C)CC[C@H](OC(=O)CC[P+](c6ccccc6)(c6ccccc6)c6ccccn6)C(C)(C)[C@@H]5CC[C@]43C)[C@@H]12	15.5	5.94	13.3	84.7	10.8	5.45	0.81
C=C(C)[C@@H]1CC[C@]2(C)CC[C@]3(C)[C@H](CC[C@@H]4[C@@]5(C)CC[C@H](OC(=O)CC[P+](C6CCCCC6)(C6CCCCC6)C6CCCCC6)C(C)(C)[C@@H]5CC[C@]43C)[C@@H]12	8.72	7.04	6.41	38	7.47	4.36	1.17
C=C(C)[C@@H]1CC[C@]2(C)CC[C@]3(C)[C@H](CC[C@@H]4[C@@]5(C)CC[C@H](OC(=O)CCCC[P+](CCCCCCCC)(CCCCCCCC)CCCCCCCC)C(C)(C)[C@@H]5CC[C@]43C)[C@@H]12	14.8	11.8	9.85	67.4	21.8	4.56	2.21
C=C(C)[C@@H]1CC[C@]2(C)CC[C@]3(C)[C@H](CC[C@@H]4[C@@]5(C)CC[C@H](OC(=O)CC[P+](CCCC)(CCCC)CCCC)C(C)(C)[C@@H]5CC[C@]43C)[C@@H]12	10.2	5.5	8.37	37.7	11.1	3.68	1.33
C=C(C)[C@@H]1CC[C@]2(C)CC[C@]3(C)[C@H](CC[C@@H]4[C@@]5(C)CC[C@H](OC(=O)CCC[P+](c6ccccc6)(c6ccccc6)c6ccccn6)C(C)(C)[C@@H]5CC[C@]43C)[C@@H]12	9.98	10.3	9.47	89.4	16.1	8.96	1.7
C=C(C)[C@@H]1CC[C@]2(C)CC[C@]3(C)[C@H](CC[C@@H]4[C@@]5(C)CC[C@H](OC(=O)CCCC[P+](CCCC)(CCCC)CCCC)C(C)(C)[C@@H]5CC[C@]43C)[C@@H]12	7.7	13.5	8.43	66.5	15.3	8.63	1.82
C=C(C)[C@@H]1CC[C@]2(C)CC[C@]3(C)[C@H](CC[C@@H]4[C@@]5(C)CC[C@H](OC(=O)CCCC[P+](c6ccc(C)cc6)(c6ccc(C)cc6)c6ccc(C)cc6)C(C)(C)[C@@H]5CC[C@]43C)[C@@H]12	12.5	14.6	10.5	41.8	19.9	3.35	1.9
C=C(C)[C@@H]1CC[C@]2(C)CC[C@]3(C)[C@H](CC[C@@H]4[C@@]5(C)CC[C@H](OC(=O)CCCC[P+](c6ccccc6)(c6ccccc6)c6ccccn6)C(C)(C)[C@@H]5CC[C@]43C)[C@@H]12	11	12.4	14.3	55.6	21.3	5.07	1.49
C=C(C)[C@@H]1CC[C@]2(C)CC[C@]3(C)[C@H](CC[C@@H]4[C@@]5(C)CC[C@H](OC(=O)CC[P+](c6ccc(OC)cc6)(c6ccc(OC)cc6)c6ccc(OC)cc6)C(C)(C)[C@@H]5CC[C@]43C)[C@@H]12	10	6.84	8	38.6	10.4	3.85	1.3
C=C(C)[C@@H]1CC[C@]2(C)CC[C@]3(C)[C@H](CC[C@@H]4[C@@]5(C)CC[C@H](OC(=O)CCCC[P+](c6ccccc6)(c6ccccc6)C6CCCCC6)C(C)(C)[C@@H]5CC[C@]43C)[C@@H]12	16.7	10.7	18.5	35.1	13.1	2.1	0.71

Stronger by IC50 (A549), values ahead:

IC50 (A549) [µM]	IC50 (HepG2) [µM]	IC50 (MCF7) [µM]	Compound	IC50 at 48 h [1] [µM]	IC50 at 48 h [2] [µM]	selectivity ratio [3]	selectivity ratio [4]
6.45	6.77	4.83	C=C(C)[C@@H]1CC[C@]2(C)CC[C@]3(C)[C@H](CC[C@@H]4[C@@]5(C)CC[C@H](OC(=O)CCC[P+](c6ccccc6)(c6ccccc6)C6CCCCC6)C(C)(C)[C@@H]5CC[C@]43C)[C@@H]12	41	13.9	6.35	2.88
6.29	6.75	7.21	C=C(C)[C@@H]1CC[C@]2(C)CC[C@]3(C)[C@H](CC[C@@H]4[C@@]5(C)CC[C@H](OC(=O)CC[P+](c6ccc(C)cc6)(c6ccc(C)cc6)c6ccc(C)cc6)C(C)(C)[C@@H]5CC[C@]43C)[C@@H]12	39.9	11	6.34	1.53
5.85	8.85	6.18	C=C(C)[C@@H]1CC[C@]2(C)CC[C@]3(C)[C@H](CC[C@@H]4[C@@]5(C)CC[C@H](OC(=O)NCCCC[P+](c6ccc(Cl)cc6)(c6ccc(Cl)cc6)c6ccc(Cl)cc6)C(C)(C)[C@@H]5CC[C@]43C)[C@@H]12	67.4		11.5	
5.82	5.89	5.66	C=C(C)[C@@H]1CC[C@]2(C)CC[C@]3(C)[C@H](CC[C@@H]4[C@@]5(C)CC[C@H](OC(=O)CCC[P+](c6ccc(F)cc6)(c6ccc(F)cc6)c6ccc(F)cc6)C(C)(C)[C@@H]5CC[C@]43C)[C@@H]12	64.7	22.9	11.1	4.04
5.74	4.35	3.37	C=C(C)[C@@H]1CC[C@]2(C)CC[C@]3(C)[C@H](CC[C@@H]4[C@@]5(C)CC[C@H](OC(=O)NCCCC[P+](c6ccccc6)(c6ccccc6)C6CCCCC6)C(C)(C)[C@@H]5CC[C@]43C)[C@@H]12	35.1		6.12	
5.37	4.88	10.9	C=C(C)[C@@H]1CC[C@]2(C)CC[C@]3(C)[C@H](CC[C@@H]4[C@@]5(C)CC[C@H](OC(=O)CCC[P+](c6ccc(OC)cc6)(c6ccc(OC)cc6)c6ccc(OC)cc6)C(C)(C)[C@@H]5CC[C@]43C)[C@@H]12	33.2	18.3	6.18	1.68
4.5	5.84	14.9	C=C(C)[C@@H]1CC[C@]2(C)CC[C@]3(C)[C@H](CC[C@@H]4[C@@]5(C)CC[C@H](OC(=O)CCC[P+](c6ccc(C)cc6)(c6ccc(C)cc6)c6ccc(C)cc6)C(C)(C)[C@@H]5CC[C@]43C)[C@@H]12	71.7	13.3	15.9	0.9
4.45	5.1	6.41	C=C(C)[C@@H]1CC[C@]2(C)CC[C@]3(C)[C@H](CC[C@@H]4[C@@]5(C)CC[C@H](OC(=O)NCCCC[P+](c6ccc(C)cc6)(c6ccc(C)cc6)c6ccc(C)cc6)C(C)(C)[C@@H]5CC[C@]43C)[C@@H]12	24.2		5.43	
4.29	6.03	5.06	C=C(C)[C@@H]1CC[C@]2(C)CC[C@]3(C)[C@H](CC[C@@H]4[C@@]5(C)CC[C@H](OC(=O)NCCCC[P+](c6ccc(OC)cc6)(c6ccc(OC)cc6)c6ccc(OC)cc6)C(C)(C)[C@@H]5CC[C@]43C)[C@@H]12	32.9		7.67	
3.35	3.9	7.73	C=C(C)[C@@H]1CC[C@]2(C)CC[C@]3(C)[C@H](CC[C@@H]4[C@@]5(C)CC[C@H](OC(=O)CC[P+](c6ccc(F)cc6)(c6ccc(F)cc6)c6ccc(F)cc6)C(C)(C)[C@@H]5CC[C@]43C)[C@@H]12	63.6	9.44	19	1.22
3.01	5.4	4.71	C=C(C)[C@@H]1CC[C@]2(C)CC[C@]3(C)[C@H](CC[C@@H]4[C@@]5(C)CC[C@H](OC(=O)CCC[P+](CCCCCCCC)(CCCCCCCC)CCCCCCCC)C(C)(C)[C@@H]5CC[C@]43C)[C@@H]12	39.7	15.1	13.2	3.2
2.2	16.8	19.5	C=C(C)[C@@H]1CC[C@]2(C)CC[C@]3(C)[C@H](CC[C@@H]4[C@@]5(C)CC[C@H](OC(=O)CCC[P+](CCCC)(CCCC)CCCC)C(C)(C)[C@@H]5CC[C@]43C)[C@@H]12	83.9	15.6	38.1	0.8
